In PubChem BioAssay (NCI):
Where “and” joins values, the source holds several entries; their conditions need not be identical. Identical values can stand only once.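 Five compound concentrations were applied to cells in 96-well plates for 48 hours; endpoints were derived by simple linear interpolation of the resulting dose-response curve. GI50 marks 50% less growth. TGI: concentration producing complete growth inhibition.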

Key:
Experiment in all cases: DTP human tumour cell line panel, 48 h
DMS 114 small cell lung = test system: DMS 114 small cell lung
HOP-18 NSCLC = test system: HOP-18 NSCLC
LXFL 529 NSCLC = test system: LXFL 529 NSCLC
M19-MEL melanoma = test system: M19-MEL melanoma
BT-549 breast = test system: BT-549 breast
HS 578T breast = test system: HS 578T breast
MDA-MB-231 breast = test system: MDA-MB-231 breast
PC-3 prostate = test system: PC-3 prostate
MDA-MB-435 = test system: MDA-MB-435
NCI/ADR-RES ovarian = test system: NCI/ADR-RES ovarian

SMILES | TGI (DMS 114 small cell lung) | TGI (HOP-18 NSCLC) | TGI (LXFL 529 NSCLC) [µM] | TGI (M19-MEL melanoma) [µM] | other results
O=C1CCCCCCCCCCOC(=O)CCCCCCCCCCO1 | > 100 µM | > 100 µM | > 100 | > 100 | 
C[C@H]1CCC2C(CN3CCCCC3)C(=O)OC2[C@]2(C)C(=O)CC(N3CCCCC3)C12O (stereo partly specified) | 13.1 µM | 48.4 µM |  | 23.9 | 
Cc1cc(C)c(C2=NO[C@@H]3C(=O)N(c4ccc(Cc5ccc(N6C(=O)[C@H]7C(c8c(C)cc(C)cc8C)=NO[C@H]7C6=O)cc5)cc4)C(=O)[C@H]23)c(C)c1 | > 100 µM | > 100 µM | > 100 | > 100 | 
O=C1NC(Cc2ccccc2)C(=O)N2CCCC12 (stereo unspecified) | > 100 µM | > 100 µM | > 100 | > 100 | 
CN(CCCCN)c1ccc2c(=O)[nH][nH]c(=O)c2c1 | > 100 µM | > 100 µM | > 100 | > 37 | 
Cc1cc2c(C)nn(Cc3ccccc3Cl)c2c(C#N)c1C |  | > 100 µM | > 100 | > 100 | 
COC(=O)Cc1nn2c(nc1=O)sc1ccc3ccccc3c12 |  | > 100 µM | > 100 | > 100 | 
O=Cc1cn(S(=O)(=O)c2ccccc2)c2ccccc12 | 62.9 µM | > 100 µM | > 100 | > 100 | 
C/C(CC(=O)Nc1ccc([N+](=O)[O-])cc1)=N\Nc1ccc([N+](=O)[O-])cc1[N+](=O)[O-] | > 100 µM |  | > 100 | > 100 | 
Cc1cc(Cl)ccc1Nc1nc2c(s1)C(=O)c1ccccc1C2=O | 4.85 µM | 12.5 µM | 12.8 | 2.06 | TGI (BT-549 breast): 2.9 µM; TGI (HS 578T breast): 5.79 µM; TGI (MDA-MB-231 breast): 12.9 µM; TGI (PC-3 prostate): 8.05 µM
CN(CC1NCCCC1O)C12CC3CC(CC(C3)C1)C2 (stereo unspecified) | > 100 µM | > 100 µM | > 100 | > 100 | 
C=CCn1c(=O)c(C(=O)NC(=O)OCC)cn(C2CCCCC2)c1=O | > 100 µM | > 100 µM | > 100 |  | 
O=c1sc(-c2nc3ccccc3[nH]2)c(/N=C/c2ccccc2)n1-c1ccccc1 |  | > 100 µM | > 100 | > 100 | 
C=C1CCC2(C(C)=O)COC1(C)O2 (stereo unspecified) | > 100 µM | > 100 µM |  | > 100 | 
CCOC(=O)CP(=S)(S)c1ccccc1 (stereo unspecified) | > 100 µM |  | > 100 | > 100 | 
COC1C(C)OC(OC2CC(C)(O)Cc3cc4c(c(O)c32)C(=O)c2c(O)cc3c(c2C4=O)OC2OC3(C)C(O)C(N(C)C)C2O)C(OC)C1(C)OC (stereo unspecified) | 0.0635 µM and 0.0446 µM | 0.919 µM and 3.11 µM | 2.84 |  | TGI (BT-549 breast): 0.00655 µM; GI50 (HOP-18 NSCLC): 0.157 µM; TGI (HS 578T breast): 0.000563 µM; TGI (MDA-MB-435): 0.00306 µM; TGI (NCI/ADR-RES ovarian): 21.2 µM; TGI (PC-3 prostate): 0.00375 µM
CC(O)c1ccc(C(O)/C(=N\NC(=O)c2ccncc2)c2nc3ccc([N+](=O)[O-])cc3[nH]c2=O)cc1 (stereo unspecified) | 98.2 µM |  | > 100 | > 100 | 

SMILES | TGI (DMS 114 small cell lung) | TGI (HOP-18 NSCLC) | TGI (LXFL 529 NSCLC) [µM] | TGI (M19-MEL melanoma) [µM] | other results
CCOC(=O)Cn1c(=O)[nH]c(=O)c2[nH]cnc21 | > 100 µM | > 100 µM | > 100 | > 100 | 
COC(=O)C1=Cc2cn(S(=O)(=O)c3ccc(C)cc3)c3cccc(c23)C(C=C(C)C)N1C(C)=O (stereo unspecified) | > 100 µM | > 100 µM | > 100 | > 100 | 
O=C(NC(Cc1ccccc1)C(=O)CCl)OCc1ccccc1 (stereo unspecified) | 4.66 µM | 24 µM | 13.9 | 27.3 | GI50 (BT-549 breast): 2.31 µM; TGI (BT-549 breast): 6 µM; GI50 (HS 578T breast): 6.23 µM; TGI (HS 578T breast): 36 µM; GI50 (MDA-MB-231 breast): 7.02 µM; TGI (MDA-MB-231 breast): 20.7 µM; GI50 (MDA-MB-435): 3.59 µM; TGI (MDA-MB-435): 14.3 µM; GI50 (NCI/ADR-RES ovarian): 6 µM; TGI (NCI/ADR-RES ovarian): 53.7 µM; GI50 (PC-3 prostate): 6.13 µM; TGI (PC-3 prostate): 20.3 µM
COc1ccc(NC(=O)C2=CC(=O)c3ccc(O)cc3C2=O)c(OC)c1 | > 100 µM | > 100 µM | > 100 | > 100 | 
CSCC(COC(C)=O)(CSC)c1ccncc1 | > 100 µM |  | > 100 | > 100 | 
[Au+].c1c[n-]cn1.c1ccc([PH+](c2ccccc2)c2ccccc2)cc1 | 1.91 µM | 4.35 µM | 2.95 | 11.9 | GI50 (BT-549 breast): 3.29 µM; TGI (BT-549 breast): > 100 µM; GI50 (DMS 114 small cell lung): 0.668 µM; GI50 (HOP-18 NSCLC): 2.08 µM; GI50 (HS 578T breast): 17.1 µM; TGI (HS 578T breast): > 100 µM; GI50 (LXFL 529 NSCLC): 1.59 µM; GI50 (M19-MEL melanoma): 3.4 µM; GI50 (MDA-MB-435): 5.17 µM; TGI (MDA-MB-435): 23.1 µM; GI50 (NCI/ADR-RES ovarian): 32.9 µM; TGI (NCI/ADR-RES ovarian): > 100 µM; GI50 (PC-3 prostate): 4.28 µM; TGI (PC-3 prostate): 17.3 µM
Cc1nc(-n2nc(-c3ccccc3)cc2-c2ccccc2)sc1C(/C=C/c1ccc([N+](=O)[O-])cc1)=N/NC(N)=S | 73.5 µM |  | > 100 | > 100 | 
CCCCC1N=CNc2c1ccc1c2[nH]c2ccccc21 (stereo unspecified) | 4.06 µM | 22.5 µM | 3.78 | 11.8 | TGI (MDA-MB-231 breast): 3.3 µM; TGI (MDA-MB-435): 3.35 µM; TGI (PC-3 prostate): 3.23 µM
O=C(CC1(O)C(=O)Nc2ccc([N+](=O)[O-])cc21)c1ccc(Br)cc1 (stereo unspecified) | > 100 µM | > 100 µM | > 100 | 69 | 
c1cnc2nc3n(c2c1)CSC3 | > 100 µM |  | > 100 | > 100 | 
Cc1cc(C)c(C(=O)/C(=C/c2ccccc2)c2ccccc2)c(C)c1 | > 100 µM | > 100 µM | > 100 | > 100 | 
CC(C)OC(=O)c1cccnc1/C=N/O | > 100 µM |  | > 100 | > 100 | 
COc1cc([C@@H]2c3cc4c(cc3[C@@H](NC(=O)c3ccc(OC(C)=O)cc3)C3COC(=O)[C@@H]32)OCO4)cc(OC)c1O (stereo partly specified) | 5.38 µM | > 100 µM | 44.2 | 40.1 | 
O=C(O)c1ccccc1C1c2ccc(Cl)cc2Oc2cc(Cl)ccc21 | > 100 µM | > 100 µM | > 100 | > 100 | 
Cn1c2c(c3ccccc31)CCN(CCCN1CCN(c3ccccc3)CC1)C2=O | 38.1 µM | 32.9 µM | 36.3 | 38.2 | 
c1ccc(N2N=NC3C4CC(C5c6ccccc6C45)C32)cc1 (stereo unspecified) | 47.5 µM |  | > 100 | 46.7 | 
